Assay results published in ChEMBL document CHEMBL1145177, “Further naphthylcombretastatins. An investigation on the role of the naphthalene moiety” (J Med Chem, 2005).

How the values were obtained:
HT-29 = experiment: Inhibitory concentration value against human colon adenocarcinoma HT-29 tumor cell line; type: functional, cell-based
A549 = experiment: Inhibitory concentration value against human A-549 tumor cell line; type: functional, cell-based
Tubulin beta chain = Tubulin beta chain (Bos taurus, UniProt Q6B856); experiment: In vitro inhibitory concentration value against bovine brain tubulin polymerization
Sequence of Tubulin beta chain (Q6B856 whole entry): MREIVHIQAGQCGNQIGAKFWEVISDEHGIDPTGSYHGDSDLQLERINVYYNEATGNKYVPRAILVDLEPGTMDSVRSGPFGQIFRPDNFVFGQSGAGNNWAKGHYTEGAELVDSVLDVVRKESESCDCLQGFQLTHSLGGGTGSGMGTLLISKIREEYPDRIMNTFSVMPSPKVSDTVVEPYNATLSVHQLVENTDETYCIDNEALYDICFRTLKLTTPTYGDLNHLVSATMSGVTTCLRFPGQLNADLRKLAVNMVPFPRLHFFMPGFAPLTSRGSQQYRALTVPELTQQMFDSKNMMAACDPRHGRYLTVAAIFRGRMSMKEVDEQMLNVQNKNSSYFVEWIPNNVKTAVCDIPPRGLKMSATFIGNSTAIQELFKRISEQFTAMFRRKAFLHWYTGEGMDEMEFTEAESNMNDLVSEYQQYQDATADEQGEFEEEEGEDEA

HL-60 = experiment: Inhibitory concentration value against human colon carcinoma H-116 or human cancer HL-60 tumor cell line; type: functional, cell-based
[1] = Inhibitory concentration value against human MEL-28 or human cancer HeLa tumor cell line; type: functional, cell-based
P388 = experiment: Inhibitory concentration value against murine P-388 tumor cell line; type: functional, cell-based; conditions: Mus musculus
SK-MEL-28 = experiment: Inhibitory concentration value against human MEL-28 tumor cell line; type: functional, cell-based
HCT-116 = experiment: Inhibitory concentration value against human colon carcinoma H-116 tumor cell line; type: functional, cell-based

Compound	IC50 (HT-29) [nM]	IC50 (A549) [nM]	IC50 (Tubulin beta chain) [nM]	IC50 (HL-60) [nM]	IC50 [1] [nM]	IC50 (P388) [nM]	IC50 (SK-MEL-28) [nM]	IC50 (HCT-116) [nM]
COc1cc(/C=C\c2ccc3c(c2)c2ccccc2n3C)cc(OC)c1OC	> 10000	> 10000	6000	> 10000	3100	–	–	–
COc1cc(/C=C\c2ccc3c(ccn3C)c2)cc(OC)c1OC	–	–	2000	330	250	–	–	–
COc1cc(CCc2ccc3ccccc3c2)cc(OC)c1OC	310	310	–	310	310	310	310	310
COc1cc(/C=C/c2ccc3[nH]ccc3c2)cc(OC)c1OC	280	470	> 30000	380	250	–	–	–
COc1cc(/C=C/c2ccc3ccccc3c2)cc(N)c1OC	6000	2150	> 40000	3150	460	–	–	–
COc1cc(/C=C/c2ccc3c(ccn3C)c2)cc(OC)c1OC	–	–	30000	27	24	–	–	–
COc1cc(/C=C/c2ccc3ccccc3c2)cc([N+](=O)[O-])c1OC	> 10000	> 10000	> 40000	> 10000	3200	–	–	–
COc1cccc(/C=C\c2ccc3ccccc3c2)c1	1920	1920	> 30000	–	–	1920	1920	1920
COc1cc(/C=C/c2ccc3ccccc3c2)cc(OC)c1OC	390	390	–	390	390	390	390	390
COc1cc(/C=C\c2ccc(N(C)C)c(N)c2)cc(OC)c1OC	4	4	> 30000	3	3	–	–	–
COc1cc(/C=C/c2ccc3c(c2)c2ccccc2n3C)cc(OC)c1OC	450	530	> 30000	340	330	–	–	–
COc1ccc(/C=C\c2cc(OC)c3ccccc3c2)cc1O	3620	40	16000	3620	40	40	40	40
COc1cc(/C=C\c2ccc3ccccc3c2)ccc1F	450	450	> 30000	–	–	450	450	450
COc1cc2ccc(CCc3ccc4ccccc4c3)cc2cc1O	3590	3590	–	3590	3590	3590	3590	3590
COc1cc(/C=C\c2ccc3[nH]ccc3c2)cc(OC)c1OC	35	390	25000	35	34	–	–	–
COc1ccc(/C=C/c2cc(OC)c3ccccc3c2)cc1O	3620	3620	–	3620	3620	3620	3620	3620
COc1ccc(/C=C\c2ccc3ccccc3c2)cc1O	32	3	3000	16	3	3	3	16
COc1cc(/C=C/c2ccc3ccccc3c2)cc(NC(C)=O)c1OC	> 5000	> 5000	–	2880	> 5000	> 5000	–	–
COc1cc(/C=C\c2cn(C)c3ccccc23)cc(OC)c1OC	3090	3090	–	3090	3090	3090	–	–
COc1cc(/C=C\c2ccc3ccccc3c2)cc(OC)c1OC [NAPHTHYLCOMBRETASTATIN]	–	–	10000	> 5000	20	20	20	20
COc1cc(/C=C\c2ccc3ccccc3c2)cc([N+](=O)[O-])c1OC	420	590	13000	340	110	–	–	–
